Measurements: the supplement of paper PMC10307832

Experiments:
Assay in all cases: relative viability (nuclei count vs DMSO), 5 days (fraction); higher = more cells survive
Omipalisib + Linsitinib = compound: COc1ncc(-c2ccc3nccc(-c4ccnnc4)c3c2)cc1NS(=O)(=O)c1ccc(F)cc1F [Omipalisib] + C[C@]1(O)C[C@@H](c2nc(-c3ccc4ccc(-c5ccccc5)nc4c3)c3c(N)nccn32)C1 [Linsitinib] (partner 1 µM)
Summary of the method: (§1)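 Each reported value is a median over duplicate plates. It expresses relative viability: treated-well nuclei count divided by vehicle-well nuclei count. Lung cancer cell lines in 1536-well plates were dosed by pin tool a day after seeding, alone with one drug or with a fixed anchor-drug dose plus five library-drug doses (not always all listed) in √10 steps, and nuclei were counted after 5 days.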

Omipalisib + Olaparib = compound: COc1ncc(-c2ccc3nccc(-c4ccnnc4)c3c2)cc1NS(=O)(=O)c1ccc(F)cc1F [Omipalisib] + O=C(c1cc(Cc2n[nH]c(=O)c3ccccc23)ccc1F)N1CCN(C(=O)C2CC2)CC1 [Olaparib] (partner 8 µM)
Summary of the method: as §1

Omipalisib + Foretinib = compound: COc1ncc(-c2ccc3nccc(-c4ccnnc4)c3c2)cc1NS(=O)(=O)c1ccc(F)cc1F [Omipalisib] + COc1cc2c(Oc3ccc(NC(=O)C4(C(=O)Nc5ccc(F)cc5)CC4)cc3F)ccnc2cc1OCCCN1CCOCC1 [Foretinib] (partner 0.25 µM)
Summary of the method: as §1

Omipalisib + Pictilisib = compound: COc1ncc(-c2ccc3nccc(-c4ccnnc4)c3c2)cc1NS(=O)(=O)c1ccc(F)cc1F [Omipalisib] + CS(=O)(=O)N1CCN(Cc2cc3nc(-c4cccc5[nH]ncc45)nc(N4CCOCC4)c3s2)CC1 [Pictilisib] (partner 1 µM)
Summary of the method: as §1

Omipalisib + Alpelisib = compound: COc1ncc(-c2ccc3nccc(-c4ccnnc4)c3c2)cc1NS(=O)(=O)c1ccc(F)cc1F [Omipalisib] + Cc1nc(NC(=O)N2CCC[C@H]2C(N)=O)sc1-c1ccnc(C(C)(C)C(F)(F)F)c1 [Alpelisib] (partner 2 µM)
Summary of the method: as §1

Omipalisib + Bortezomib = compound: COc1ncc(-c2ccc3nccc(-c4ccnnc4)c3c2)cc1NS(=O)(=O)c1ccc(F)cc1F [Omipalisib] + CC(C)C[C@H](NC(=O)[C@H](Cc1ccccc1)NC(=O)c1cnccn1)B(O)O [Bortezomib] (partner 0.002 µM)
Summary of the method: as §1

Omipalisib + Lapatinib = compound: COc1ncc(-c2ccc3nccc(-c4ccnnc4)c3c2)cc1NS(=O)(=O)c1ccc(F)cc1F [Omipalisib] + CS(=O)(=O)CCNCc1ccc(-c2ccc3ncnc(Nc4ccc(OCc5cccc(F)c5)c(Cl)c4)c3c2)o1 [Lapatinib] (partner 2 µM)
Summary of the method: as §1

Omipalisib + Crizotinib = compound: COc1ncc(-c2ccc3nccc(-c4ccnnc4)c3c2)cc1NS(=O)(=O)c1ccc(F)cc1F [Omipalisib] + C[C@@H](Oc1cc(-c2cnn(C3CCNCC3)c2)cnc1N)c1c(Cl)ccc(F)c1Cl [Crizotinib] (partner 1 µM)
Summary of the method: as §1

Omipalisib + Navitoclax = compound: COc1ncc(-c2ccc3nccc(-c4ccnnc4)c3c2)cc1NS(=O)(=O)c1ccc(F)cc1F [Omipalisib] + CC1(C)CCC(c2ccc(Cl)cc2)=C(CN2CCN(c3ccc(C(=O)NS(=O)(=O)c4ccc(N[C@H](CCN5CCOCC5)CSc5ccccc5)c(S(=O)(=O)C(F)(F)F)c4)cc3)CC2)C1 [Navitoclax] (partner 0.5 µM)
Summary of the method: as §1

Omipalisib = compound: COc1ncc(-c2ccc3nccc(-c4ccnnc4)c3c2)cc1NS(=O)(=O)c1ccc(F)cc1F [Omipalisib]
Summary of the method: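 Vehicle-anchored 1536-well plates of lung cancer cell lines, held overnight at 37 °C, were pinned with five library-drug doses (not always all listed) spaced by √10. No medium change followed over the next 5 days, after which the cells were fixed, permeabilised and Hoechst-stained together and imaged at 4×. Nuclei were counted with MetaXpress, and viability is treated-well nuclei over vehicle-well nuclei, taken as a median across plates. Plates passed with control CV below 25% and at least one doubling.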

Omipalisib + AZD7762 = compound: COc1ncc(-c2ccc3nccc(-c4ccnnc4)c3c2)cc1NS(=O)(=O)c1ccc(F)cc1F [Omipalisib] + NC(=O)Nc1cc(-c2cccc(F)c2)sc1C(=O)N[C@H]1CCCNC1 [AZD7762] (partner 0.2 µM)
Summary of the method: as §1

Omipalisib + Vorinostat = compound: COc1ncc(-c2ccc3nccc(-c4ccnnc4)c3c2)cc1NS(=O)(=O)c1ccc(F)cc1F [Omipalisib] + O=C(CCCCCCC(=O)Nc1ccccc1)NO [Vorinostat] (partner 1 µM)
Summary of the method: as §1

NCI-H1299
relative viability (Omipalisib + Linsitinib; first compound 0.0003 µM): 0.95
relative viability (Omipalisib + Linsitinib; first compound 0.003 µM): 1.01
relative viability (Omipalisib + Linsitinib; first compound 0.03 µM): 0.909
relative viability (Omipalisib + Olaparib; first compound 0.0003 µM): 1.05
relative viability (Omipalisib + Olaparib; first compound 0.003 µM): 1.01
relative viability (Omipalisib + Olaparib; first compound 0.03 µM): 0.902
relative viability (Omipalisib + Foretinib; first compound 0.0003 µM): 1.13
relative viability (Omipalisib + Foretinib; first compound 0.003 µM): 1.17
relative viability (Omipalisib + Foretinib; first compound 0.03 µM): 1.12
relative viability (Omipalisib + Pictilisib; first compound 0.0003 µM): 0.778
relative viability (Omipalisib + Pictilisib; first compound 0.003 µM): 0.612
relative viability (Omipalisib + Pictilisib; first compound 0.03 µM): 0.624
relative viability (Omipalisib + Alpelisib; first compound 0.0003 µM): 1.12
relative viability (Omipalisib + Alpelisib; first compound 0.003 µM): 1.13
relative viability (Omipalisib + Alpelisib; first compound 0.03 µM): 1.06
relative viability (Omipalisib + Bortezomib; first compound 0.0003 µM): 1.03
relative viability (Omipalisib + Bortezomib; first compound 0.003 µM): 1.08
relative viability (Omipalisib + Bortezomib; first compound 0.03 µM): 1.12
relative viability (Omipalisib + Lapatinib; first compound 0.0003 µM): 1.01
relative viability (Omipalisib + Lapatinib; first compound 0.003 µM): 0.994
relative viability (Omipalisib + Lapatinib; first compound 0.03 µM): 1.02
relative viability (Omipalisib + Crizotinib; first compound 0.0003 µM): 0.986
relative viability (Omipalisib + Crizotinib; first compound 0.003 µM): 1.03
relative viability (Omipalisib + Crizotinib; first compound 0.03 µM): 0.967
relative viability (Omipalisib + Navitoclax; first compound 0.0003 µM): 1.09
relative viability (Omipalisib + Navitoclax; first compound 0.003 µM): 1.05
relative viability (Omipalisib + Navitoclax; first compound 0.03 µM): 1.05
relative viability (Omipalisib; 0.0003 µM): 1.06
relative viability (Omipalisib; 0.003 µM): 1.1
relative viability (Omipalisib; 0.03 µM): 1.02

NCI-H1703
relative viability (Omipalisib + Linsitinib; first compound 0.0003 µM): 0.596
relative viability (Omipalisib + Linsitinib; first compound 0.003 µM): 0.298
relative viability (Omipalisib + Linsitinib; first compound 0.03 µM): 0.171
relative viability (Omipalisib + Olaparib; first compound 0.0003 µM): 0.28
relative viability (Omipalisib + Olaparib; first compound 0.003 µM): 0.279
relative viability (Omipalisib + Olaparib; first compound 0.03 µM): 0.214
relative viability (Omipalisib + Foretinib; first compound 0.0003 µM): 0.314
relative viability (Omipalisib + Foretinib; first compound 0.003 µM): 0.37
relative viability (Omipalisib + Foretinib; first compound 0.03 µM): 0.301
relative viability (Omipalisib + Pictilisib; first compound 0.0003 µM): 0.218
relative viability (Omipalisib + Pictilisib; first compound 0.003 µM): 0.238
relative viability (Omipalisib + Pictilisib; first compound 0.03 µM): 0.202
relative viability (Omipalisib + Alpelisib; first compound 0.0003 µM): 0.428
relative viability (Omipalisib + Alpelisib; first compound 0.003 µM): 0.273
relative viability (Omipalisib + Alpelisib; first compound 0.03 µM): 0.179
relative viability (Omipalisib + Bortezomib; first compound 0.0003 µM): 0.323
relative viability (Omipalisib + Bortezomib; first compound 0.003 µM): 0.268
relative viability (Omipalisib + Bortezomib; first compound 0.03 µM): 0.153
relative viability (Omipalisib + Lapatinib; first compound 0.0003 µM): 0.879
relative viability (Omipalisib + Lapatinib; first compound 0.003 µM): 0.715
relative viability (Omipalisib + Lapatinib; first compound 0.03 µM): 0.293
relative viability (Omipalisib + Crizotinib; first compound 0.0003 µM): 0.707
relative viability (Omipalisib + Crizotinib; first compound 0.003 µM): 0.418
relative viability (Omipalisib + Crizotinib; first compound 0.03 µM): 0.128
relative viability (Omipalisib + AZD7762; first compound 0.0003 µM): 0.152
relative viability (Omipalisib + AZD7762; first compound 0.003 µM): 0.115
relative viability (Omipalisib + AZD7762; first compound 0.03 µM): 0.111
relative viability (Omipalisib + Navitoclax; first compound 0.0003 µM): 0.713
relative viability (Omipalisib + Navitoclax; first compound 0.003 µM): 0.651
relative viability (Omipalisib + Navitoclax; first compound 0.03 µM): 0.24
relative viability (Omipalisib; 0.0003 µM): 0.777
relative viability (Omipalisib; 0.003 µM): 0.572
relative viability (Omipalisib; 0.03 µM): 0.234

IA-LM
relative viability (Omipalisib + Linsitinib; first compound 0.0003 µM): 0.636
relative viability (Omipalisib + Linsitinib; first compound 0.003 µM): 0.571
relative viability (Omipalisib + Linsitinib; first compound 0.03 µM): 0.243
relative viability (Omipalisib + Olaparib; first compound 0.0003 µM): 0.903
relative viability (Omipalisib + Olaparib; first compound 0.003 µM): 0.85
relative viability (Omipalisib + Olaparib; first compound 0.03 µM): 0.602
relative viability (Omipalisib + Foretinib; first compound 0.0003 µM): 1.27
relative viability (Omipalisib + Foretinib; first compound 0.003 µM): 0.997
relative viability (Omipalisib + Foretinib; first compound 0.03 µM): 0.683
relative viability (Omipalisib + Pictilisib; first compound 0.0003 µM): 0.45
relative viability (Omipalisib + Pictilisib; first compound 0.003 µM): 0.317
relative viability (Omipalisib + Pictilisib; first compound 0.03 µM): 0.197
relative viability (Omipalisib + Alpelisib; first compound 0.0003 µM): 0.785
relative viability (Omipalisib + Alpelisib; first compound 0.003 µM): 0.793
relative viability (Omipalisib + Alpelisib; first compound 0.03 µM): 0.373
relative viability (Omipalisib + Vorinostat; first compound 0.0003 µM): 0.873
relative viability (Omipalisib + Vorinostat; first compound 0.003 µM): 0.916
relative viability (Omipalisib + Vorinostat; first compound 0.03 µM): 0.25
relative viability (Omipalisib + Bortezomib; first compound 0.0003 µM): 1.01
relative viability (Omipalisib + Bortezomib; first compound 0.003 µM): 0.818
relative viability (Omipalisib + Bortezomib; first compound 0.03 µM): 0.258
relative viability (Omipalisib + Lapatinib; first compound 0.0003 µM): 0.95
relative viability (Omipalisib + Lapatinib; first compound 0.003 µM): 0.703
relative viability (Omipalisib + Lapatinib; first compound 0.03 µM): 0.251
relative viability (Omipalisib + Crizotinib; first compound 0.0003 µM): 0.906
relative viability (Omipalisib + Crizotinib; first compound 0.003 µM): 0.682
relative viability (Omipalisib + Crizotinib; first compound 0.03 µM): 0.288
relative viability (Omipalisib + Navitoclax; first compound 0.0003 µM): 0.92
relative viability (Omipalisib + Navitoclax; first compound 0.003 µM): 0.847
relative viability (Omipalisib + Navitoclax; first compound 0.03 µM): 0.251
relative viability (Omipalisib; 0.0003 µM): 0.888
relative viability (Omipalisib; 0.003 µM): 0.764
relative viability (Omipalisib; 0.03 µM): 0.355
